Consider 21 compounds from patent US11420970B1 (NOVARTIS AG, priority 2019, dated 2022).

For one assay, the target named is NSD2 [1-1365] (Homo sapiens (Human), UniProt O96028). The assay can be described thus: LC-MS/MS-based NSD2 enzymatic assay (SAH production). Type of assay: biochemical. Particulars: read-out: NSD2 IC50. In outline: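 Full-length NSD2 [1-1365] (8 nM final) with 1 μM SAM and 400 nM mouse-liver nucleosome in Tris pH 8.0 buffer; inhibitor preincubated 20 min with enzyme/SAM before nucleosome addition. Reaction 90 min at room temperature, TFA-quenched; SAH quantified by LC-MS/MS against d4-SAH internal standard and SAH standard curve.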
NSD2 [1-1365], sequence (O96028 whole entry): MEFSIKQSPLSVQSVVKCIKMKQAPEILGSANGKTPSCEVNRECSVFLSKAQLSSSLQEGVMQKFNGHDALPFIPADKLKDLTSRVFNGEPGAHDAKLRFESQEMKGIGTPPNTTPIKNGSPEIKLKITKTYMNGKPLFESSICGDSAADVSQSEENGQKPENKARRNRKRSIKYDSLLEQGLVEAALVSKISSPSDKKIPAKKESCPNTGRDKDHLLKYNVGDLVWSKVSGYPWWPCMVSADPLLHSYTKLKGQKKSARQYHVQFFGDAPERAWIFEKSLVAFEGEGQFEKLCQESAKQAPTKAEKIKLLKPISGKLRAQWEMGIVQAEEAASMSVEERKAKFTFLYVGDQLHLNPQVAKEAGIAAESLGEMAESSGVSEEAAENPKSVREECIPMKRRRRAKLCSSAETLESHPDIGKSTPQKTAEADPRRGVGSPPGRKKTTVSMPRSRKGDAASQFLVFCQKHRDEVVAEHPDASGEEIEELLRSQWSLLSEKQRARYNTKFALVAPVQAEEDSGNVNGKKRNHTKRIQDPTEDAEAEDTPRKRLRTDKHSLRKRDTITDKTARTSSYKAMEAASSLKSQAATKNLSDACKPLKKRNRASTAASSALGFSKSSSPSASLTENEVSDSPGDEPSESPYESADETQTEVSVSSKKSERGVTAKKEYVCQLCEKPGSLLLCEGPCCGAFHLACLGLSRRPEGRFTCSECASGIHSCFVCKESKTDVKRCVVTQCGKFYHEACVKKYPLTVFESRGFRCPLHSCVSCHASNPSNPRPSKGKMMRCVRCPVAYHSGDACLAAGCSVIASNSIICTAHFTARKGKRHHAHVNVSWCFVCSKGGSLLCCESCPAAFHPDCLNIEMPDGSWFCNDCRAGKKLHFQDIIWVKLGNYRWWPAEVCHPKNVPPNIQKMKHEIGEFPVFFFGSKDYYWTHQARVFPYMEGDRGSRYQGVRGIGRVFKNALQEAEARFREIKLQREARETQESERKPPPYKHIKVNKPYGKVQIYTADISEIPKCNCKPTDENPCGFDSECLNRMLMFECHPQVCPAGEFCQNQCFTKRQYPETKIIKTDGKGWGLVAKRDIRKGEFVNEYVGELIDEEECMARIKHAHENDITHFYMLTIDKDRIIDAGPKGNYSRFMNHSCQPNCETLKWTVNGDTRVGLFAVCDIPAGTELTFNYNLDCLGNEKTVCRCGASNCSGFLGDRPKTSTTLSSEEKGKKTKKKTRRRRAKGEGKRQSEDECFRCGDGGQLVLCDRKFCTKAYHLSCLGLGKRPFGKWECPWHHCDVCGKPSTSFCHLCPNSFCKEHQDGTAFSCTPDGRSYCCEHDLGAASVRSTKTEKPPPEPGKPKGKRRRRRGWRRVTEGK

In assay [1] the test system is cellular H3K36me2 level in thyroid carcinoma cell line CGTH-W-1 (NSD2 E1099K). The assay can be described thus: H3K36me2 cellular ELISA assay in CGTH-W-1 line. The following applies: Homo sapiens, CGTH-W-1, 72 h, read-out: H3K36me2 ELISA in CGTH-W-1. In kind it is cell-based. The procedure: H3K36Me2 Cellular ELISA Assay in CGTH-W-1 Line
An ELISA (enzyme-linked immunosorbent assay) based assay was used to test the ability of candidate compound to reduce cellular H3K36me2 level in thyroid carcinoma cell line CGTH-W-1, carrying NSD2 E1099K gain of function mutation. CGTH-W-1 (DSMZ) cells are maintained in RPM11640 media with 10% FBS and 50 U/ml Penicillin-Streptomycin.
Cells were treated with tested compounds at the desired concentration for 72 hours.
(§1) Histone bound plates were washed and blocked with 5% BSA. […] The abundance of H3K36me2 and total H3 was measured by Chemiluminesce on a plate reader. Cell viability was monitored on a parallel seeded plate with CellTiter-Glo reagent (Promega #G7573).

Assay [2] relates to cellular H3K36me2 level in multiple myeloma cell line KMS11 (t(4;14)+). The assay can be described thus: H3K36me2 cellular ELISA assay in KMS11-Par line. Particulars: Homo sapiens, KMS-11; KMS11-Par line, ELISA, 72 hours; read-out: H3K36me2 ELISA in KMS11-Par. Type of assay: cell-based. On the procedure:
H3K36Me2 Cellular ELISA Assay in KMS11-Par Line
An ELISA (enzyme-linked immunosorbent assay) based assay was used to test the ability of candidate compound to reduce cellular H3K36me2 level in multiple myeloma cell line KMS11 (t(4;14)+). KMS11 (Horizon Discovery Ltd.) cells are maintained in RPM11640 media with 12.5% FBS and 50 U/ml Penicillin-Streptomycin. For assay compound treatment, single cell suspension was prepared in Opti-MEM supplemented with B-27 and N2 supplement (Invitrogen 11058-021, 17504-044, 17502-048) for ELISA and in maintenance media for cellTiter Glo (CTG) viability assay. One day prior to cell treatment, 1,250 KMS11 cells were seeded into 384-well Greiner CellStar TC plate (Greiner #781086) at the final volume of 30 μL/well.
Cells were treated with tested compounds at the desired concentration for 72 hours. Crude histone lysate was extracted by 0.4M HCl following neutralization by 0.5M Sodium phosphate, dibasic (Na2HPO4), pH ˜12.5. Equal amount of histone lysate was loaded to Corning 384-well high biding plate (Corning #3577, black) for H3K36m2 and to Thermo 384-well high binding Nunc plate (Thermo #460372, white) for total H3.
as §1

For `COc1cccc([C@@]2(N)CCCN(c3cnc(-c4ccc(F)c(F)c4)cc3Cn3cnc4c(N)ncnc43)C2)n1` [Example 178, (R)-9-((5-(3-amino-3-(6-methoxypyridin-2-yl)piperidin-1-yl)-2-(3,4-difluorophenyl)pyridin-4-yl)methyl)-9H-purin-6-amine], the figures for the IC50 (on NSD2 [1-1365]; in assay [1]) were 0.001 to 0.01 µM and 0.23 µM, respectively.

Consider `Nc1ncnc2c1ncn2Cc1cc(-c2ccc3c(c2)COC3)ncc1N1CCCC(N)(c2cccc(Cl)n2)C1` (stereo not drawn) [Example 179, 9-((5-(3-amino-3-(6-chloropyridin-2-yl)piperidin-1-yl)-2-(1,3-dihydroisobenzofuran-5-yl)pyridin-4-yl)methyl)-9H-purin-6-amine], for which the IC50 on NSD2 [1-1365] is 0.01 to 1 µM; in assay [1], 1.42 µM.

On to `Nc1ncnc2c1ncn2Cc1cc(-c2ccc(OC(F)F)cc2)ncc1N1CCCC(N)(c2cccc(Cl)n2)C1` (stereo not drawn) [Example 184, 9-((5-(3-amino-3-(6-chloropyridin-2-yl)piperidin-1-yl)-2-(4-(difluoromethoxy)phenyl)pyridin-4-yl)methyl)-9H-purin-6-amine], for which the IC50 was 0.01 to 1 µM at NSD2 [1-1365] and 0.592 µM in assay [1].

Regarding `Nc1nccc2c1ncn2Cc1cc(-c2ccc(F)c(F)c2)ncc1N1CCC[C@](N)(c2cccc(C(F)F)n2)C1` [Example 260, (R)-1-((5-(3-amino-3-(6-(difluoromethyl)pyridin-2-yl)piperidin-1-yl)-2-(3,4-difluorophenyl)pyridin-4-yl)methyl)-1H-imidazo[4,5-c]pyridin-4-amine], the IC50 at NSD2 [1-1365] is 0.01 to 1 µM; in assay [2], 1.52 µM.

Take `Cc1cccc([C@@]2(N)CCCN(c3cnc(-c4ccc(F)cc4)cc3Cn3cnc4c(N)nccc43)C2)n1` [Example 261, (R)-1-((5-(3-amino-3-(6-methylpyridin-2-yl)piperidin-1-yl)-2-(4-fluorophenyl)pyridin-4-yl)methyl)-1H-imidazo[4,5-c]pyridin-4-amine]: the IC50 on NSD2 [1-1365] is 0.001 to 0.01 µM; in assay [2], 0.235 µM.

In the case of `Nc1nccc2c1ncn2Cc1cc(-c2ccc(F)c(F)c2)ncc1N1CCCC(N)(c2cccc(F)n2)C1` (stereo not drawn) [Example 262, 1-((5-(3-amino-3-(6-fluoropyridin-2-yl)piperidin-1-yl)-2-(3,4-difluorophenyl)pyridin-4-yl)methyl)-1H-imidazo[4,5-c]pyridin-4-amine], the values for the IC50 (at NSD2 [1-1365]; in assay [2]) were 0.01 to 1 µM and 1.33 µM, respectively.

For `Cc1cccc(C2(N)CCCN(c3cnc(C4CC4)cc3Cn3cnc4c(N)nccc43)C2)n1` (stereo not drawn) [Example 263, 1-((5-(3-amino-3-(6-methylpyridin-2-yl)piperidin-1-yl)-2-cyclopropylpyridin-4-yl)methyl)-1H-imidazo[4,5-c]pyridin-4-amine], the figures for the IC50 (at NSD2 [1-1365]; in assay [2]) were 0.01 to 1 µM and 4.17 µM, respectively.

As to `Nc1nccc2c1ncn2Cc1cc(C2CC2)ncc1N1CCC[C@](N)(c2cccc(C(F)F)n2)C1` [Example 264, (R)-1-((5-(3-amino-3-(6-(difluoromethyl)pyridin-2-yl)piperidin-1-yl)-2-cyclopropylpyridin-4-yl)methyl)-1H-imidazo[4,5-c]pyridin-4-amine], the IC50 at NSD2 [1-1365] is 0.01 to 1 µM; in assay [2] it was 9.63 µM.

`Nc1nccc2c1ncn2Cc1cc(-c2ccc(F)cc2)ncc1N1CCCC(N)(c2ccccn2)C1` (stereo not drawn) [Example 266, 1-((5-(3-amino-3-(pyridin-2-yl)piperidin-1-yl)-2-(4-fluorophenyl)pyridin-4-yl)methyl)-1H-imidazo[4,5-c]pyridin-4-amine]: the IC50 on NSD2 [1-1365] was 0.001 to 0.01 µM; in assay [2] it was 0.436 µM.

In the case of `Nc1nccc2c1ncn2Cc1cc(C2CCC2)ncc1N1CCCC(N)(c2cccc(Cl)n2)C1` (stereo not drawn) [Example 267, 1-((5-(3-amino-3-(6-chloropyridin-2-yl)piperidin-1-yl)-2-cyclobutylpyridin-4-yl)methyl)-1H-imidazo[4,5-c]pyridin-4-amine], the IC50 at NSD2 [1-1365] is 0.01 to 1 µM; in assay [2], 1.91 µM.

Regarding `Cn1cc([C@@]2(N)CCCN(c3cnc(-c4ccc(F)c(F)c4)cc3Cn3cnc4c(N)ncnc43)C2)cn1` [Example 269, (S)-9-((5-(3-amino-3-(1-methyl-1H-pyrazol-4-yl)piperidin-1-yl)-2-(3,4-difluorophenyl)pyridin-4-yl)methyl)-9H-purin-6-amine], the IC50 on NSD2 [1-1365] was 0.001 to 0.01 µM; in assay [2] it was 5.68 µM.

As for `Cn1cc(C2(N)CCCN(c3cnc(-c4ccc(F)c(F)c4)cc3Cn3cnc4c(N)nccc43)C2)cn1` (stereo not drawn) [Example 270, 1-((5-(3-amino-3-(1-methyl-1H-pyrazol-4-yl)piperidin-1-yl)-2-(3,4-difluorophenyl)pyridin-4-yl)methyl)-1H-imidazo[4,5-c]pyridin-4-amine], the results for the IC50 (at NSD2 [1-1365]; in assay [2]) were 0.01 to 1 µM and 15.3 µM, respectively.

For the compound `Nc1ncnc2c1ncn2Cc1cc(-c2ccc(F)c(F)c2)ncc1N1CCCC(N)(c2cccnc2)C1` (stereo not drawn) [Example 271, 9-((5-(3-amino-3-(pyridin-3-yl)piperidin-1-yl)-2-(3,4-difluorophenyl)pyridin-4-yl)methyl)-9H-purin-6-amine], the figures for the IC50 (at NSD2 [1-1365]; in assay [2]) were above 1 µM and 33.3 µM, respectively.

Consider `CC(C)n1ccc([C@@]2(N)CCCN(c3cnc(-c4ccc(F)cc4)cc3Cn3cnc4c(N)ncnc43)C2)n1` [Example 274, (R)-9-((5-(3-amino-3-(1-isopropyl-1H-pyrazol-3-yl)piperidin-1-yl)-2-(4-fluorophenyl)pyridin-4-yl)methyl)-9H-purin-6-amine], for which the IC50 at NSD2 [1-1365] was 0.001 to 0.01 µM; in assay [2], 5.54 µM.

In the case of `CCn1ccc(C2(N)CCCN(c3cnc(-c4ccc(F)cc4)cc3Cn3cnc4c(N)nccc43)C2)n1` (stereo not drawn) [Example 277, 1-((5-(3-amino-3-(1-ethyl-1H-pyrazo1-3-yl)piperidin-1-yl)-2-(4-fluorophenyl)pyridin-4-yl)methyl)-1H-imidazo[4,5-c]pyridin-4-amine], the IC50 at NSD2 [1-1365] was 0.01 to 1 µM; in assay [2], 2.2 µM.

`Nc1ncnc2c1ncn2Cc1cc(-c2ccc(F)c(F)c2)ncc1N1CCCC(N)(c2ccn(C3CC3)n2)C1` (stereo not drawn) [Example 278, 9-((5-(3-amino-3-(1-cyclopropyl-1H-pyrazol-3-yl)piperidin-1-yl)-2-(3,4-difluorophenyl)pyridin-4-yl)methyl)-9H-purin-6-amine]: the IC50 at NSD2 [1-1365] was 0.001 to 0.01 µM; in assay [2] it was 0.475 µM.

In the case of `Nc1nccc2c1ncn2Cc1cc(-c2ccc(F)cc2)ncc1N1CCCC(N)(c2ccn(C3CC3)n2)C1` (stereo not drawn) [Example 280, 1-((5-(3-amino-3-(1-cyclopropyl-1H-pyrazol-3-yl)piperidin-1-yl)-2-(4-fluorophenyl)pyridin-4-yl)methyl)-1H-imidazo[4,5-c]pyridin-4-amine], the IC50 at NSD2 [1-1365] is 0.001 to 0.01 µM; in assay [2] it was 1.49 µM.

In the case of `Nc1ncnc2c1ncn2Cc1cc(-c2ccc(F)c(F)c2)ncc1N1CCCC(N)(C=C(F)F)C1` (stereo not drawn) [Example 294, 9-((5-(3-amino-3-(2,2-difluorovinyl)piperidin-1-yl)-2-(3,4-difluorophenyl)pyridin-4-yl)methyl)-9H-purin-6-amine], the IC50 is 0.01 to 1 µM on NSD2 [1-1365] and 9.44 µM in assay [2].

Take `Nc1ncnc2c1ncn2Cc1cc(-c2ccc(F)c(F)c2)ncc1N1CC[C@@H](O)[C@](N)(c2cccc(Cl)n2)C1` [Example 302, (3R,4R)-3-amino-1-(4-((6-amino-9H-purin-9-yl)methyl)-6-(3,4-difluorophenyl)pyridin-3-yl)-3-(6-chloropyridin-2-yl)piperidin-4-ol]: the IC50 at NSD2 [1-1365] is 0.01 to 1 µM; in assay [2] it was 0.563 µM.

Consider `COCC1CC(N)CN(c2cnc(-c3ccc(F)c(F)c3)cc2Cn2cnc3c(N)ncnc32)C1` (stereo not drawn) [Example 308, 9-((5-(3-amino-5-(methoxymethyl)piperidin-1-yl)-2-(3,4-difluorophenyl)pyridin-4-yl)methyl)-9H-purin-6-amine], for which the IC50 was 0.01 to 1 µM at NSD2 [1-1365] and 27.5 µM in assay [2].

Regarding `CN(C)C(=O)CC[C@@]1(N)CCCN(c2cnc(-c3ccc(F)c(F)c3)cc2Cn2cnc3c(N)ncnc32)C1` [Example 322, (S)-3-(3-amino-1-(4-((6-amino-9H-purin-9-yl)methyl)-6-(3,4-difluorophenyl)pyridin-3-yl)piperidin-3-yl)-N,N-dimethylpropanamide], the results for the IC50 (on NSD2 [1-1365]; in assay [2]) were 0.01 to 1 µM and above 33.7 µM, respectively.
